# Test results reported in patent US20190241569A1, “3-(ARYL OR HETEROARYL) METHYLENEINDOLIN-2-ONE DERIVATIVES AS INHIBITORS OF CANCER STEM CELL PATHWAY KINASES FOR THE TREATMENT OF CANCER” (Boston Biomedical, Inc., priority 2013, published 2019).
# Legend:
# Format in all cases: cell-based
# A549 CSC = assay: Cancer stem cells, Cell Titer-Glo 72 hours (Test Example 3); conditions: Homo sapiens
# ACHN CSC = assay: as above; conditions: Homo sapiens, ACHN, 72 h
# FaDu CSC = assay: as above; conditions: Homo sapiens, FaDu, 72 h
# A549 = assay: Bulk cancer cells, Cell Titer-Glo 72 hours (Test Example 2); conditions: Homo sapiens
# Procedure: (§1) Tubes of 3× drug (60 uM in 500 uL complete media) were prepared from 5 mM stock solutions in DMSO. […] To treat cells, 50 uL of drug from the dilution plate was removed and added to the cell plates. […] Cells were harvested 72 hours after drug addition using Cell Titer-Glo (Promega) and luminescence measured on a plate reader.
# ACHN = assay: as above; conditions: Homo sapiens, ACHN, 72 h
# Procedure: as §1
# FaDu = assay: as above; conditions: Homo sapiens
# Procedure: as §1
IC50 (A549 CSC) [µM],IC50 (ACHN CSC) [µM],IC50 (FaDu CSC) [µM],IC50 (A549) [µM],IC50 (ACHN) [µM],IC50 (FaDu) [µM],Structure (SMILES)
8.89,1.08,0.16,10.8,6.44,7.01,CCN(CC)CCNC(=O)c1c(C)[nH]c(/C=C2\C(=O)Nc3ccc(-c4ccc(OC)cn4)cc32)c1C [Example 188]
8.82,2.28,4.3,2.2,2.04,1.21,CCN(CC)CCNC(=O)c1c(C)[nH]c(/C=C2\C(=O)Nc3ccc(-c4ccc(C(=O)O)s4)cc32)c1C [Example 209]
36.8,21.1,14.4,12.5,14.9,14.7,Cc1cc(C)c(/C=C2\C(=O)Nc3ccc(-c4ccc(O)cc4C)cc32)[nH]1 [Example 261]
4.61,1.42,1.4,1.74,2.26,2.31,CCN(CC)CCNC(=O)c1c(C)[nH]c(/C=C2\C(=O)Nc3ccc(-c4ccc(OC)cc4C)cc32)c1C [Example 267]
18,1.15,0.09,15.4,3.5,6.02,CCN(CC)CCNC(=O)c1c(C)[nH]c(/C=C2\C(=O)Nc3ccc(-c4ncccn4)cc32)c1C [Example 182]
2.24,0.24,0.19,2.79,1.96,1.76,CCN(CC)CCNC(=O)c1c(C)[nH]c(/C=C2\C(=O)Nc3ccc(-c4cccc(OC)n4)cc32)c1C [Example 190]
13.9,0.71,0.03,3.18,5.05,2.13,CCN(CC)CCNC(=O)c1c(C)[nH]c(/C=C2\C(=O)Nc3ccc(-c4nccc5ccccc45)cc32)c1C [Example 187]
5.84,4.34,7.51,10.6,2.81,12.1,CCN(CC)CCNC(=O)c1c(C)[nH]c(/C=C2\C(=O)Nc3ccc(-c4ccc(C=O)cc4)cc32)c1C [Example 266]
6.45,0.63,3.96,2.3,7.41,4.92,CCN(CC)CCNC(=O)c1c(C)[nH]c(/C=C2\C(=O)Nc3ccc(-c4ccc(-c5ccccc5)nc4)cc32)c1C [Example 194]
26.4,10.8,0.16,3.24,2.74,1.49,CCN(CC)CCNC(=O)c1c(C)[nH]c(/C=C2\C(=O)Nc3ccc(-c4cnc5cn[nH]c5c4)cc32)c1C [Example 181]
13.2,2.65,0.23,10.6,10.1,6.62,CCN(CC)CCNC(=O)c1c(C)[nH]c(/C=C2\C(=O)Nc3ccc(-c4cnccn4)cc32)c1C [Example 180]
5.45,1.06,0.18,7.23,2.26,2.56,CCN(CC)CCNC(=O)c1c(C)[nH]c(/C=C2\C(=O)Nc3ccc(-c4ccccn4)cc32)c1C [Example 183]
35,2.72,37.4,9.31,8.84,14.5,Cc1cc(C)c(/C=C2\C(=O)Nc3ccc(-c4csc(-n5ccnc5)n4)cc32)[nH]1 [Example 215]
12,1.71,3.48,14.5,13.3,14,CCN(CC)CCNC(=O)c1c(C)[nH]c(/C=C2\C(=O)Nc3ccc(-c4ccc(C#N)c(F)c4)cc32)c1C [Example 269]
3.73,0.56,0.21,7.28,10.7,11.4,Cc1[nH]c(/C=C2\C(=O)Nc3ccc(-c4csc(-c5ccccc5)n4)cc32)c(C)c1S(=O)(=O)N1CCOCC1 [Example 147]
7.18,28.9,22.1,9.19,3.61,1.66,O=C1Nc2ccc(-c3csc(-c4ccncc4)n3)cc2/C1=C/c1cnc[nH]1 [Example 152]
4.13,0.98,5.97,3.73,9.53,4.93,CCN(CC)CCNC(=O)c1c(C)[nH]c(/C=C2\C(=O)Nc3ccc(-c4nc5ccccc5s4)cc32)c1C [Example 191]
26.7,4.04,3.13,4,14.9,11.4,CCN(CC)CCNC(=O)c1cc(C)c(/C=C2\C(=O)Nc3ccc(-c4csc(-c5ccccc5)n4)cc32)[nH]1 [Example 165]

IC50 (A549 CSC) [µM],IC50 (ACHN CSC) [µM],IC50 (FaDu CSC) [µM],IC50 (A549) [µM],IC50 (ACHN) [µM],IC50 (FaDu) [µM],Structure (SMILES)
7.28,3.1,5.33,6.45,8.73,4.43,Cc1cc(C)c(/C=C2\C(=O)Nc3ccc(-c4n[nH]c5ccccc45)cc32)[nH]1 [Example 231]
6.84,1.41,0.07,7.48,7.14,2.63,CCN(CC)CCNC(=O)c1c(C)[nH]c(/C=C2\C(=O)Nc3ccc(-c4ncccc4OC)cc32)c1C [Example 189]
8.74,4.23,3.53,1.11,2.48,3.85,CCN(CC)CCNC(=O)CCc1c(C)[nH]c(/C=C2\C(=O)Nc3ccc(-c4csc(-c5ccccc5)n4)cc32)c1C [Example 149]
13.1,1.88,20,4.14,4.15,7.67,CCN(CC)CCNC(=O)c1c(C)[nH]c(/C=C2\C(=O)Nc3ccc(-c4ncccc4C)cc32)c1C [Example 203]
3.16,1.63,1.46,3.65,4.11,4.46,CCN(CC)CCNC(=O)c1c(C)[nH]c(/C=C2\C(=O)Nc3cc(-c4ccc(C(=O)c5ccccc5)cc4)ccc32)c1C [Example 264]
4.48,0.57,4.73,2.8,5.23,4.27,CCN(CC)CCNC(=O)c1c(C)[nH]c(/C=C2\C(=O)Nc3ccc(-c4cccc(C#N)c4C)cc32)c1C [Example 205]
6.64,2.73,0.06,3.66,3.64,1.74,CCN(CC)CCNC(=O)c1c(C)[nH]c(/C=C2\C(=O)Nc3ccc(-c4cnc5cccnn45)cc32)c1C [Example 179]
10.5,0.69,3.6,9.94,11.3,18.3,"CCN(CC)CCN(C)C(=O)c1c(C)[nH]c(/C=C2\C(=O)Nc3ccc(-c4csc(-c5ccccc5)n4)cc32)c1C [Example 129, (Z)-N-(2-(diethylamino)ethyl)-N,2,4-trimethyl-5-((2-oxo-5-(2-phenylthiazol-4-yl)indolin-3-ylidene)methyl)-1H-pyrrole-3-carboxamide]"
18.8,2.99,21.7,6.16,9.57,5.57,CCN(CC)CCNC(=O)c1c(C)[nH]c(/C=C2\C(=O)Nc3ccc(-c4csc(-n5ccnc5)n4)cc32)c1C [Example 196]
3.94,0.48,9.1,2.01,2.68,3.74,CCN(CC)CCNC(=O)c1c(C)[nH]c(/C=C2\C(=O)Nc3ccc(-c4cscc4C)cc32)c1C [Example 206]
11,0.23,2.47,10.1,12.8,21.1,Cc1[nH]c(/C=C2\C(=O)Nc3ccc(-c4ccc(-c5ccccc5)s4)cc32)c(C)c1C(=O)N1CCOCC1 [Example 11]
6.64,0.62,5.11,3.71,7.88,4.68,CCN(CC)CCNC(=O)c1c(C)[nH]c(/C=C2\C(=O)Nc3ccc(-c4csc(-n5cccn5)n4)cc32)c1C [Example 195]
2.31,2.91,2.5,17.2,1.44,7.57,O=C1Nc2ccc(-c3csc(-c4ccccc4)n3)cc2/C1=C/c1ncc[nH]1 [Example 150]
18,0.55,10.1,7.33,3.66,4.55,CCN(CC)CCNC(=O)c1c(C)[nH]c(/C=C2\C(=O)Nc3ccc(-c4cncnc4)cc32)c1C [Example 207]
42.6,6.97,2.24,7.07,10.9,7.45,CCN(CC)CCNC(=O)c1c(C)[nH]c(/C=C2\C(=O)Nc3cc(-c4cnc5ccccc5n4)ccc32)c1C [Example 251]
6.83,0.62,5.47,3.85,6.39,4.59,CCN(CC)CCNC(=O)c1c(C)[nH]c(/C=C2\C(=O)Nc3ccc(-c4cnc5ccccc5c4)cc32)c1C [Example 204]
2,0.9,9.67,1.5,2.41,2.58,CCN(CC)CCNC(=O)c1c(C)[nH]c(/C=C2\C(=O)Nc3ccc(-c4cc(-c5ccccc5)ccn4)cc32)c1C [Example 198]
